Measured values reported in patent US20110136727A1, “Compositions and methods for rapid selection of pathogen binding agents” (priority 2009, published 2011).
Where a SMILES comes first, the peptide text is derived from it. Where no end group is shown, it is not given here.

Assays:
[1] = tested on: E. coli O111:B4; experiment: LPS competition assay on random-sequence peptide microarray (binding of fluorescently labeled bacteria with and without excess free LPS); conditions: fluorescent intensity of SYTO 9 labeled E. coli O111:B4 binding to the arrayed peptide without vs with excess non-labeled LPS of the same strain
Procedure: FIG. 2. Schematic representation of the bacterial binding assay. PEG3,400 linker modified random sequence peptide microarrays were incubated (FIG. 2A) with fluorescently labeled bacteria and (FIG. 2B) with bacteria in presence of excess free LPS.
Microarray screening. Aliquots of the bacterial cultures were centrifuged to isolate the cells and were washed twice with an equal volume of PBS buffer (pH 7.2). After each wash, bacteria were resuspended and centrifuged. Cells were fluorescently stained with SYTO 9 green-fluorescent cell-permeable nucleic acid dye (Molecular Probes, Eugene, Oreg.). Dye was added to a 500 microliter suspension of bacteria at a concentration of 20 μM in PBS buffer and shaken for 1 hr at 37 degrees Centigrade. After incubation, the cell suspension was centrifuged, isolated, and washed twice with 1 ml PBS buffer. […] Each array was equipped with an Agilent hybridization chamber, and then 450 microliter solution of E. coli in PBS buffer supplemented with 0.03% FBS was added. The arrays were gently shaken on a platform for 1 hr at 37 degrees Centigrade temperature. After incubation, the hybridization chamber was removed, and unbound cells were washed away from the array by dipping it into a 50 ml solution of the hybridization buffer. This step was repeated twice, and the buffer was changed between washings. A final wash with nanopure water was used to remove salts from the array. Slides were then briefly centrifuged at 1500 rpm for 2 min to dry the arrays.
Data analysis. The arrays were scanned using a laser scanner (PERKIN-ELMER PROSCANARRAY HT) and quantified using GENEPIX PRO6.0 (Molecular Devices, Inc.) in order to determine the fluorescence intensity of each probe and identify its corresponding peptide sequence. A statistical comparison of microarray data was done with GENESPRING GX 7.3 (AGILENT, INC, Palo Alto, Calif., USA) by importing the image-processed data from GENEPIX PRO6.0. Median signal intensities were used in the calculations. For statistical comparisons, each slide was normalized to 50th percentile. Also, measurements of less than 0.01 were set to 0.01. Results were represented on a heatmap in order to be able to compare the difference in intensities with and without excess LPS.
LPS competition assay. Since approximately 90% of bacterial surface is comprised of LPS it was expected that bacteria will bind to random peptide microarray mostly through LPS. […] Same number of cells stained with SYTO-9® was used to probe the microarrays with and without excess non-labeled LPS from the same strain (FIG. 2).

[2] = Serum stability (serum incubation and western blot); assay type: in vitro ADME, human; conditions: for Degradation in human serum, monomeric peptide vs tetravalent PEG scaffold: western blot probed with Streptavidin-AlexaFluor 647 (FIG. 7)
Procedure: Serum stability of Construct 1. Over the last decade, there was a considerable interest in developing antimicrobial peptides as intravenously administered antibiotics. In this respect, a common criticism of peptide-based drugs has been their susceptibility to endogenous proteases. […] To test the in vitro stability of Construct 1 we used a serum-incubation and western blot analysis. Construct 1 was incubated in fresh human serum at 37° C. and pH=7.4 with a starting concentration of 10 μM. Samples were withdrawn at predetermined time points and each sample diluted 20-fold with loading buffer prior to analysis by western blot (FIG. 7).

[3] = tested on: E. coli O111:B4; experiment: In vitro growth inhibition assay (turbidity at 600 nm); assay type: cell-based; conditions: added at mid-logarithmic phase, QF8 at 25 micrometers, NEG-1 at 100 micrometers, Construct 1 at 7, 10, and 25 micrometers, vs untreated bacteria
Procedure: FIG. 6. Bacterial growth inhibition assays in presence of (a) growth media; (b) negative control peptide NEG1 at 100 micromolar; (c) 25 micromolar peptide QF8 (SEQ ID NO: 33 Table 2); (d) 7 micrommolar QF8-PEG Construct 1; (e) 10 micromolar QF8-PEG Construct 1; (f) 17.5 micromolar QF8-PEG construct 1; (g) 25 micromolar QF8-PEG Construct 1; (h) 100 IU penicillin/streptomycin as a positive control.
In vitro growth inhibition assays. Growth of E. coli O111:B4 was assessed in the presence of different concentrations of NEG-1, QF8, and Construct 1 using turbidity at 600 nm. […]
In vitro inhibition assays. […] Growth was monitored as turbidity at 600 nm. Experiments were performed at 30 degrees Centigrade in microtiter plates with 100 microliters of culture using a Spectra Max Plus microtiter plate reader with Soft Max Pro Software (Molecular devices). The turbidity was measured every 5 minutes and the plate was shaken for 30 seconds before each measurement. Bacteria concentration was calculated according to the McFarland general method using the absorbance at 600 nm of a series of mixtures of 1% barium chloride and 1% sulfuric acid.

[4] = tested on: LPS; conditions: Morales et al., 2009; cited from earlier work

| Molecule | Ratio ECO/(ECO + LPS) [1] | further results |
| --- | --- | --- |
| 1 (WWRRKKWHKHKRKHPRFGSC) [compound 1] | 18.76 | – |
| 2 (HWKRRHKHKWPKRHPHKGSC) [compound 2] | 13.22 | – |
| 3 (HWKRHHRPKHKHHRHKHGSC) [compound 3] | 11.48 | – |
| 4 (HFHHWKWKHHHHRHRRFGSC) [compound 4] | 11.28 | – |
| 5 (WKKKRKHRHKKHWHPWRGSC) [compound 5] | 10.3 | – |
| 6 (RHWRKPRKWHKKWPPHRGSC) [compound 6] | 9.881 | – |
| 7 (WKRPWHRWHPKRRKWRHGSC) [compound 7] | 9.611 | – |
| 8 (WHHWFHHKKKKPWWKKKGSC) [compound 8] | 8.832 | – |
| 9 (HFRKWHKRRWKHHKKWKGSC) [compound 9] | 8.435 | – |
| 10 (HPWWWHHKKRRHHKHKKGSC) [compound 10] | 5.345 | – |
| 11 (PWWKWRKRKHPKKHHKRGSC) [compound 11] | 4.687 | – |
| 12 (WKWKRHWKWPHRRKHFFGSC) [compound 12] | 4.576 | – |
| 13 (WHRKFFRWRFHRHKKHKGSC) [compound 13] | 4.547 | – |
| 14 (HRKRPKRHHKRHWPRWKGSC) [compound 14] | 4.429 | – |
| 15 (KKFHPHFKPWHFRHKKPGSC) [compound 15] | 4.303 | – |
| 16 (KHPFWHPHRRHKKKRWFGSC) [compound 16] | 4.283 | – |
| 17 (WHHKWRFWKHFRHKRHFGSC) [compound 17] | 4.216 | – |
| 18 (SIADIHKRKFRVRRKHIGSC) [compound 18] | 4.04 | – |
| 19 (PWKFHRHWHHHKHWKWKGSC) [compound 19] | 3.644 | – |

| Molecule | Ratio ECO/(ECO + LPS) [1] | further results |
| --- | --- | --- |
| 20 (HHWWRKRRRKRHRKHWKGSC) [compound 20] | 3.527 | – |
| 21 (RWQKKVKMKRDHVYFRMGSC) [compound 21] | 3.526 | – |
| 22 (RWFPKKHHHRWRKWWKKGSC) [compound 22] | 3.506 | – |
| 23 (HHHHKRKHFWRPRHPRKGSC) [compound 23] | 3.493 | – |
| 24 (HKRHKKHFKFFRWHRKWGSC) [compound 24] | 3.428 | – |
| 25 (TKRIHKWPQDAYRIRRGGSC) [compound 25] | 3.355 | – |
| 26 (RTYWNYGIMRHNKTRKGGSC) [compound 26] | 3.331 | – |
| 27 (WHWHHWKHKKRRHHWRRGSC) [compound 27] | 3.261 | – |
| 28 (KHWHWHKRKKHHRKFFWGSC) [compound 28] | 3.0313 | – |
| 29 (RKHHKKPHKRKRWKWWPGSC) [compound 29] | 3.021 | – |
| 30 (RFHWKHRRKWKHHHPRRGSC) [compound 30] | 2.944 | – |
| 31 (HWHHRWWHHWKHPHHWRGSC) [compound 31] | 2.854 | – |
| 32 (WKFRHRHHRHHWHKKWKGSC) [compound 32] | 2.844 | – |
| 33 (HRKPKFRHHHFKWKHWKGSC) [compound 33] | 2.786 | – |
| 34 (RRWWRKRFWHHRWHRRKGSC) [compound 34] | 2.423 | – |
| 35 (HRWWFKKKHRFRWWKRWGSC) [compound 35] | 2.404 | – |
| 36 (RFFFHKWRRWRRRKPPRGSC) [compound 36] | 2.378 | – |
| 37 (RWRRHKHFKRPHRKHKRGSC) [compound 37] | 2.375 | – |
| 38 (WWHHKWFKHKKFWRHKFGSC) [compound 38] | 2.349 | – |

| Molecule | Ratio ECO/(ECO + LPS) [1] | further results |
| --- | --- | --- |
| 39 (WKPWFHPRKHHKWRHWHGSC) [compound 39] | 2.334 | – |
| 40 (KHKWWRWHKWHWWFRKHGSC) [compound 40] | 2.322 | – |
| 41 (KWKHHKKFRKRKRHWFHGSC) [compound 41] | 2.316 | – |
| 42 (HWHPRWHKHKFKHWRWHGSC) [compound 42] | 2.273 | – |
| 43 (WRFKHFRWKRFKHHHKKGSC) [compound 43] | 2.263 | – |
| 44 (IYNKRSQVRRKGFKKKYGSC) [compound 44] | 2.169 | – |
| 45 (RKRKWHHPWHWRRKRRWGSC) [compound 45] | 2.136 | – |
| 46 (RHWRPKFRKFRWWRWHHGSC) [compound 46] | 2.125 | – |
| 47 (FHKKRHFKRRHKFWWWRGSC) [compound 47] | 2.114 | – |
| 48 (HKWHRKKFHKHRFKHHKGSC) [compound 48] | 2.112 | – |
| 49 (WFWKHKKWRRHPRKWHWGSC) [compound 49] | 2.104 | – |
| 50 (EPKLWFKPRRGGYRHRHGSC) [compound 50] | 2.035 | – |
| 51 (HRKWHWPWKWPWKRKRWGSC) [compound 51] | 2.033 | – |
| 52 (RPKPHRHWKPKFPHHHWGSC) [compound 52] | 2.031 | – |
| 53 (WRRSTPVGPWTWFGKFLGSC) [compound 53] | 1.974 | – |
| 54 (RRFRHWWRWRKRRRKWRGSC) [compound 54] | 1.914 | – |
| N=C(N)NCCC[C@H](NC(=O)[C@H](Cc1ccccc1)NC(=O)[C@H](CCCCN)NC(=O)[C@@H]1CCCN1C(=O)[C@H](CCCCN)NC(=O)[C@H](CCCNC(=N)N)NC(=O)[C@@H](N)Cc1c[nH]cn1)C(=O)N[C@@H](Cc1c[nH]cn1)C(=O)N[C@@H](Cc1c[nH]cn1)C(=O)N[C@@H](Cc1c[nH]cn1)C(=O)N[C@@H](Cc1ccccc1)C(=O)N[C@@H](CCCCN)C(=O)N[C@@H](Cc1c[nH]c2ccccc12)C(=O)N[C@@H](CCCCN)C(=O)N[C@@H](Cc1c[nH]cn1)C(=O)N[C@@H](Cc1c[nH]c2ccccc12)C(=O)N[C@@H](CCCCN)C(=O)NCC(=O)N[C@@H](CO)C(=O)N[C@@H](CS)C(=O)O [SEQ ID NO: 33] (H-HRKPKFRHHHFKWKHWKGSC-OH; N-terminus and C-terminus assumed) | – | Degradation in human serum, monomeric peptide vs tetravalent PEG scaffold [2]: degraded much faster |
| Construct 1: tetravalent mPEG-maleimide (MW 20 kDa) conjugated with QF8 peptide (HRKPKFRHHHFKWKHWKGSC; also: conjugated with tetravalent 20 kDa mPEG-maleimide) | – | Time for which proteolysis was resisted ([2]; fresh human serum, 37° C., pH=7.4, starting concentration 10 μM, western blot): more than 8 hours; Degradation in human serum, monomeric peptide vs tetravalent PEG scaffold [2]: prolonged the half-life; Growth of E. coli O111:B4 (growth curves, bacterial count) [3]: dramatic decrease in bacterial count |
| EFSNPTAQVFPDFWMSDGSC [NEG-1, negative control peptide, reference compound] | – | Binding to the bacteria and to LPS [4]: bind neither to the bacteria nor to LPS; Growth of E. coli O111:B4 (growth curves, bacterial count) [3]: no changes |
